Results reported in publication PMC9065260 (Frontiers in Pharmacology, 2022).
Like-named read-outs stand apart in the source and are kept apart here.

Key:
HCC827 cells = assay: MTT assay for cell proliferation and cytotoxicity; type: cell-based; conditions: Homo sapiens, 48 h, mean ± SD
Description: (§2) The compounds were dissolved in DMSO to make a 50 mM stock solution and were diluted to the concentration of working solutions with the complete growth medium before administration.
(§3) Cells were seeded in 96-well plates with densities of 2,200–2,500 cells/well in 100 μL. One day after seeding, the concentration of the test compounds between 0 and 50 μM, 0.1% DMSO was added to cells as control. […] After 48 h, MTT was added and incubated in the plate for 1–4 h in the incubator.

KYSE70 cells = assay: MTT assay for cell proliferation and cytotoxicity; type: cell-based; conditions: Homo sapiens, read-out: IC50 KYSE70
Description: as §2, §3

[1] = test system: human esophageal epithelial cell SHEE; assay: MTT assay, toxicity against normal cells; type: cell-based; conditions: read-out: IC50 SHEE
Description: Cells were seeded in 96-well plates with densities of 2,200–2,500 cells/well in 100 μL. One day after seeding, the concentration of the test compounds between 0 and 50 μM, 0.1% DMSO was added to cells as control. Approximately 2200-2500 transfected cells in 100 μL were incubated in quintuplicate in 96-well plates. After 48 h, MTT was added and incubated in the plate for 1–4 h in the incubator.

H1650 cells = assay: MTT assay for cell proliferation and cytotoxicity; type: cell-based; conditions: Homo sapiens, read-out: IC50 H1650
Description: as §2, §3

KYSE450 cells [2] = assay: MTT assay for cell proliferation and cytotoxicity; type: cell-based; conditions: Homo sapiens, read-out: IC50 KYSE450
Description: as §2, §3

KYSE410 cells = assay: MTT assay for cell proliferation and cytotoxicity; type: cell-based; conditions: Homo sapiens, read-out: IC50 KYSE410
Description: as §2, §3

KYSE410TR cells = assay: MTT assay, drug-resistant cell line; type: cell-based, human
Description: as §2, §3

KYSE70TR cells = assay: MTT assay, drug-resistant cell line; type: cell-based, human
Description: as §2, §3

KYSE450 cells [3] = assay: Flow cytometry detection for cell apoptosis (Annexin V/PI); type: cell-based, human; conditions: 48 h
Description: (§1) Cell apoptosis analysis was carried out by flow cytometry using the Annexin V/PI apoptosis methods. […] The cells were harvested and incubated with 250 μL of 1 × Annexin V binding buffer containing 5 μL of PI and 5 μL of FITC Annexin V (final concentration 1.8 μg/ml, Biolegend cat: 640945) for 15 min at room temperature in the dark. Then 200 µL of 1 × binding buffer was added for flow cytometry analysis (BD FACSCalibur™ Flow Cytometer).

KYSE450TR cells [4] = assay: as above; type: cell-based, human; conditions: 48 h
Description: as §1

HCC827GR cells = assay: MTT assay, drug-resistant cell line; type: cell-based, human
Description: as §2, §3

KYSE450TR cells [5] = assay: MTT assay, drug-resistant cell line; type: cell-based, human
Description: as §2, §3

H1650TR cells = assay: MTT assay, drug-resistant cell line; type: cell-based, human
Description: as §2, §3

[6] = MTT, normal human esophageal epithelial cells, mean ± SD
[7] = NCI-H1650, MTT, 48 h, mean ± SD

| Structure (SMILES) | IC50 (HCC827 cells) | IC50 (KYSE70 cells; KYSE-70, MTT, 48 h, mean ± SD) | IC50 [1, 6] | IC50 (H1650 cells; [7]) | IC50 (KYSE450 cells [2]; KYSE-450, MTT, 48 h, mean ± SD) | IC50 (KYSE410 cells; KYSE-410, MTT, 48 h, mean ± SD) | melting point | also measured |
| --- | --- | --- | --- | --- | --- | --- | --- | --- |
| COCCOc1cc2ncnc(Nc3cccc(-c4cn(-c5ccc(Br)cc5)nn4)c3)c2cc1OCCOC [Compound 3j, [6,7-Bis-(2-Methoxy-Ethoxy)-Quinazolin-4-yl]-{3-[1-(4-Bromo-Phenyl)-1H-(1,2,3)Triazol-4-yl]-Phenyl}-Amine] | 6.27 ± 0.42 µM | 3.72 ± 0.33 µM | 7.2 ± 0.63 µM | 4.98 ± 0.17 µM | 3.6 ± 0.27 µM | > 50 µM | 105 to 108 °C |  |
| COCCOc1cc2ncnc(Nc3cccc(-c4cn(-c5ccccc5OC)nn4)c3)c2cc1OCCOC [Compound 3k, [6,7-Bis-(2-Methoxy-Ethoxy)-Quinazolin-4-yl]-{3-[1-(2-Methoxy-Phenyl)-1H-[1,2,3]Triazol-4-yl]-Phenyl}-Amine] | 6.18 ± 0.61 µM | 16 ± 1.53 µM | 10.3 ± 0.96 µM | 16 ± 1.69 µM | 20 ± 2.25 µM | 32 ± 3.25 µM | 87 to 90 °C |  |
| COCCOc1cc2ncnc(Nc3cccc(-c4cn(-c5ccc(C)cc5)nn4)c3)c2cc1OCCOC [Compound 3l, [6,7-Bis-(2-Methoxy-Ethoxy)-Quinazolin-4-yl]-[3-(1-p-Tolyl-1H-(1,2,3)Triazol-4-yl)-Phenyl]-Amine] | 4.61 ± 0.28 µM | 11.1 ± 0.94 µM | 4.82 ± 0.32 µM | 10 ± 0.79 µM | > 50 µM | > 50 µM | 95 to 98 °C |  |
| COCCOc1cc2ncnc(Nc3cccc(-c4cn(-c5cccc([N+](=O)[O-])c5)nn4)c3)c2cc1OCCOC [Compound 3m, [6,7-Bis-(2-Methoxy-Ethoxy)-Quinazolin-4-yl]-{3-[1-(3-Nitro-Phenyl)-1H-(1,2,3)Triazol-4-yl]-Phenyl}-Amine] | 8.44 ± 0.37 µM | 3.92 ± 0.15 µM | > 50 µM | 4.27 ± 0.19 µM | 4.05 ± 0.21 µM | 5.85 ± 0.2 µM | 98 to 101 °C |  |
| CCOc1cccc(-n2cc(-c3cccc(Nc4ncnc5cc(OCCOC)c(OCCOC)cc45)c3)nn2)c1 [Compound 3n, [6,7-Bis-(2-Methoxy-Ethoxy)-Quinazolin-4-yl]-{3-[1-(3-Ethoxy-Phenyl)-1H-(1,2,3)Triazol-4-yl]-Phenyl}-Amine] | 13.7 ± 1.34 µM | > 50 µM | 22.6 ± 2.31 µM | 35.4 ± 3.46 µM | 12.8 ± 1.25 µM | 49.7 ± 4.57 µM | 110 to 114 °C |  |
| COCCOc1cc2ncnc(Nc3cccc(-c4cn(-c5ccccc5C(F)(F)F)nn4)c3)c2cc1OCCOC [Compound 3p, [6,7-Bis-(2-Methoxy-Ethoxy)-Quinazolin-4-yl]-{3-[1-(2-Trifluoromethyl-Phenyl)-1H-(1,2,3)Triazol-4-yl]-Phenyl}-Amine] | 34.7 µM | > 50 µM | > 50 µM | > 50 µM | 24.9 ± 2.16 µM | > 50 µM | 113 to 116 °C |  |
| COCCOc1cc2ncnc(Nc3cccc(-c4cn(-c5ccc(OC)cc5OC)nn4)c3)c2cc1OCCOC [Compound 3q, [6,7-Bis-(2-Methoxy-Ethoxy)-Quinazolin-4-yl]-{3-[1-(2,4-Dimethoxy-Phenyl)-1H-(1,2,3)Triazol-4-yl]-Phenyl}-Amine] | > 50 µM | > 50 µM | 28.1 ± 2.47 µM | > 50 µM | > 50 µM | 12.3 ± 0.93 µM | 85 to 88 °C |  |
| COCCOc1cc2ncnc(Nc3cccc(-c4cn(-c5ccc(C)cc5O)nn4)c3)c2cc1OCCOC [Compound 3r, 2-(4-{3-[6,7-Bis-(2-Methoxy-Ethoxy)-Quinazolin-4-Ylamino]-Phenyl}-(1,2,3)Triazol-1-yl)-5-Methyl-Phenol] | 12.4 ± 1.07 µM | 5.85 ± 0.52 µM | > 50 µM | 4.32 ± 0.27 µM | 8.2 ± 0.67 µM | 8.74 ± 0.74 µM | 100 to 103 °C |  |
| COCCOc1cc2ncnc(Nc3cccc(-c4cn(CCc5ccccc5)nn4)c3)c2cc1OCCOC [Compound 3s, [6,7-Bis-(2-Methoxy-Ethoxy)-Quinazolin-4-yl]-{3-[1-Phenethyl-1H-(1,2,3)Triazol-4-yl]-Phenyl}-Amine] | > 50 µM | > 50 µM | 33.3 ± 3.43 µM | > 50 µM | > 50 µM | > 50 µM | 109 to 112 °C |  |
| C#Cc1cccc(Nc2ncnc3cc(OCCOC)c(OCCOC)cc23)c1 [Erlotinib] |  |  |  |  |  |  |  | IC50 (KYSE410TR cells; Homo sapiens, read-out: IC50 KYSE410TR, MTT, paclitaxel-resistant esophageal cancer cell line): > 10 µM; IC50 (KYSE410TR cells; read-out: IC50 KYSE410TR, MTT, paclitaxel-resistant esophageal cancer cell line): > 20 µM; IC50 (KYSE70TR cells; Homo sapiens, read-out: IC50 KYSE70TR, MTT, paclitaxel-resistant esophageal cancer cell line): > 10 µM; IC50 (KYSE70TR cells; read-out: IC50 KYSE70TR, MTT, paclitaxel-resistant esophageal cancer cell line): > 20 µM; IC50 (KYSE70 cells; KYSE-70, 48 h): > 50 µM; proportion of apoptotic cells (KYSE450 cells [3]; KYSE450, 5 μM): 7.04%; proportion of apoptotic cells (KYSE450 cells [3]; KYSE450, 10 μM): 8.94%; proportion of apoptotic cells (KYSE450TR cells [4]; 5 μM): 10.16%; proportion of apoptotic cells (KYSE450TR cells [4]; 10 μM): 16.68%; IC50 (HCC827GR cells; Homo sapiens, read-out: IC50 HCC827GR, MTT, gefitinib-resistant lung cancer cell line): > 10 µM; IC50 (HCC827GR cells; read-out: IC50 HCC827GR, MTT, gefitinib-resistant lung cancer cell line): > 20 µM; IC50 ([1]; Homo sapiens): 21 ± 2.11 µM; IC50 (H1650 cells; NCI-H1650, 48 h): 14 ± 1.19 µM; IC50 (KYSE450 cells [2]; KYSE-450, 48 h): 7.6 ± 0.51 µM; IC50 (KYSE450TR cells [5]; Homo sapiens, read-out: IC50 KYSE450TR, MTT, paclitaxel-resistant esophageal cancer cell line): > 10 µM; IC50 (KYSE450TR cells [5]; read-out: IC50 KYSE450TR, MTT, paclitaxel-resistant esophageal cancer cell line): > 20 µM; IC50 (H1650TR cells; Homo sapiens, read-out: IC50 H1650TR, MTT, paclitaxel-resistant lung cancer cell line): > 10 µM; IC50 (H1650TR cells; read-out: IC50 H1650TR, MTT, paclitaxel-resistant lung cancer cell line): > 20 µM; IC50 (KYSE410 cells; KYSE-410, 48 h): 5 ± 0.46 µM |
